The inhibition is how much of the control response was suppressed. A high value points to a strong effect. By EC50 is commonly meant the midpoint of the concentration-response curve. A high value points to a need for much substance.

Experiment [1] deals with SARS-CoV. The experiment can be described thus: Inhibition of human SARS-CoV Toronto-2 at 300 uM in a cell based assay. The class given is functional. The settings on record: Severe acute respiratory syndrome-related coronavirus.
The subject of experiment [2] is SARS-CoV. In words: Inhibition of human SARS-CoV Toronto-2 in a cell based assay. It is filed as functional, organism-based. As to conditions: Severe acute respiratory syndrome-related coronavirus.

With `O=C(O)c1ccc(NC(=O)c2cccc3c2C2=C(CCCC2)C3=O)cc1`, the inhibition at 300 µM in the experiment with SARS-CoV [1] was 25%. In the experiment with SARS-CoV [2], `O=C(O)c1ccc(/N=C/c2c(O)ccc3oc4c(c23)CCCC4)cc1` registered an EC50 of 23 µM. That is a double-digit micromolar value.

The record behind these values is ChEMBL document CHEMBL1149467, “From genome to drug lead: identification of a small-molecule inhibitor of the SARS virus” (Bioorg Med Chem Lett, 2006).
